The subject of data set [1] is Chikungunya virus. As to the kind of experiment: Antiviral activity against CHIKV infected in human Huh-7 cells assessed as inhibition of viral growth at 5 uM incubated for 12 hrs relative to control. The class given is functional.
The subject of data set [2] is Huh-7. The data set can be described thus: Cytotoxicity against human Huh-7 cells assessed as reduction in cell viability at 5 uM by CCK8 assay relative to control. The format is toxicity, cell-based. As to conditions: huh-7, 5 µM. In general terms: Tetrazolium dyes change colour on reduction, which living cells bring about.
In data set [3] the test system is Chikungunya virus. The data set can be described thus: Antiviral activity against CHIKV infected in human Huh-7 cells assessed as inhibition of viral growth at 10 uM incubated for 12 hrs relative to control. The format is functional. Details: scale not given: the % may be the effect or the level left.
In data set [4] the test system is Chikungunya virus. The data set can be described thus: Antiviral activity against CHIKV infected in human Huh-7 cells assessed as inhibition of viral growth at 2.5 uM incubated for 12 hrs relative to control. The format is functional.
Data set [5] is described as follows: Selectivity index, ratio of CC50 for cytotoxicity against human Huh-7 cells to IC50 for antiviral activity against CHIKV infected in human Huh-7 cells. As to conditions: read-out: Ratio CC50/IC50. The format is toxicity, cell-based.
Data set [6] has as its system Chikungunya virus. As to the kind of experiment: Antiviral activity against CHIKV infected in human Huh-7 cells assessed as inhibition of viral growth incubated for 12 hrs. The class given is functional, organism-based. Conditions: Huh-7, 12 h.
Data set [7] can be described thus: Cytotoxicity against human Huh-7 cells assessed as reduction in cell viability by CCK8 assay relative to control. The class given is toxicity, cell-based.

In the case of `O=C(/C=C/c1ccc(O)c(O)c1)N1CCN(C(c2ccccc2)c2ccc(Cl)cc2)CC1` (stereo not given), the inhibition – broadly, how much of the control response was suppressed – at 5 µM in data set [1] was 34.7%. For the same compound, the cell viability – broadly, the share of living cells, or the viability signal relative to a control – in data set [2] is reported as more than 80%. The Activity in data set [3] stood at 74.4%. Also, the inhibition at 2.5 µM in data set [4] is 20.2%.

As for `O=C(/C=C/c1ccc(O)c(O)c1)N1CCN(C(c2ccc(F)cc2)c2ccc(F)cc2)CC1`, the inhibition at 5 µM in data set [1] amounted to 43.9%. Moreover, the cell viability in data set [2] was more than 80%. Besides, the Activity in data set [3] was found to be 96.3%. Moreover, in data set [4], the inhibition at 2.5 µM came to 20.1%.

On to `O=C(/C=C/c1ccccc1F)N1CCN(C(c2ccc(F)cc2)c2ccc(F)cc2)CC1`, for which the inhibition at 5 µM in data set [1] came out at 92.8%. Besides, the cell viability in data set [2] is listed as more than 80%. In addition, the selectivity ratio in data set [5] came to 51.9. For the same compound, the Activity in data set [3] stood at 95.8%. For the same compound, in data set [6], the concentration for half-maximal inhibition (IC50) (as a rule, the point on the concentration scale where inhibition reaches its midpoint) was determined as 0.61 µM. The inhibition at 2.5 µM in data set [4] was determined as 74.2%. Also, the cytotoxic concentration (CC50) (as a rule, the concentration giving 50% cytotoxicity) in data set [7] came out at 31.7 µM.

`O=C(/C=C/c1ccc(F)cc1)N1CCN(C(c2ccc(F)cc2)c2ccc(F)cc2)CC1`: in data set [1], the inhibition at 5 µM turned out to be 19.6%. The cell viability in data set [2] is given as more than 80%. In addition, in data set [3], the Activity came out at 55.2%. The inhibition at 2.5 µM in data set [4] was 9.7%.

Turning to `O=C(/C=C/c1ccccc1F)N1CCN(C(c2ccccc2)c2ccccc2)CC1`, the inhibition at 5 µM in data set [1] was 62.1%. In data set [2], the cell viability is more than 80%. Further, the selectivity ratio in data set [5] turned out to be 7.6. Moreover, in data set [3], the Activity is given as 77.6%. Further, in data set [6], the half-maximal inhibitory concentration (IC50) was found to be 4.5 µM. Also, the inhibition at 2.5 µM in data set [4] is 17.9%. Besides, the CC50 in data set [7] worked out at 34.2 µM.

`O=C(/C=C/c1cccc(F)c1)N1CCN(C(c2ccc(F)cc2)c2ccc(F)cc2)CC1`: in data set [1], the inhibition at 5 µM was determined as 78.9%. In addition, in data set [2], the cell viability is more than 80%. For the same compound, in data set [5], the selectivity ratio was 11.1. The Activity in data set [3] worked out at 85.8%. Further, the IC50 in data set [6] was 2.06 µM. Also, the inhibition at 2.5 µM in data set [4] is 59.6%. In data set [7], the cytotoxic concentration (CC50) is 22.9 µM.

On to `Cc1ccc(/C=C/C(=O)N2CCN(C(c3ccccc3)c3ccc(Cl)cc3)CC2)cc1` (stereo not given), for which the inhibition at 5 µM in data set [1] is 29.7%. In addition, in data set [2], the cell viability is more than 80%. The Activity in data set [3] turned out to be 56.3%. The inhibition at 2.5 µM in data set [4] amounted to 13.4%.

For `Cc1ccc(/C=C/C(=O)N2CCN(C(c3ccc(F)cc3)c3ccc(F)cc3)CC2)cc1`, in data set [1], the inhibition at 5 µM came to 32.8%. The cell viability in data set [2] was more than 80%. In data set [3], the Activity is on record as 84.3%. In data set [4], the inhibition at 2.5 µM was 21.3%.

Consider `O=C(/C=C/c1ccc2c(c1)OCO2)N1CCN(C(c2ccccc2)c2ccc(Cl)cc2)CC1` (stereo not given), for which the inhibition at 5 µM in data set [1] came to 52.3%. In data set [2], the cell viability is recorded as more than 80%. Further, the selectivity ratio in data set [5] came out at 6.5. Besides, the Activity in data set [3] was determined as 86.5%. Further, in data set [6], the IC50 was 4.83 µM. The inhibition at 2.5 µM in data set [4] stood at 13.2%. Further, in data set [7], the cytotoxic concentration (CC50) was 31.4 µM.

Turning to `O=C(/C=C/c1ccc2c(c1)OCO2)N1CCN(C(c2ccc(F)cc2)c2ccc(F)cc2)CC1`, the inhibition at 5 µM in data set [1] came to 93.1%. Besides, in data set [2], the cell viability was more than 80%. Also, the selectivity ratio in data set [5] is 66. The Activity in data set [3] is 97.4%. Also, in data set [6], the 50% inhibitory concentration (IC50) amounted to 0.45 µM. Further, in data set [4], the inhibition at 2.5 µM was found to be 86.9%. The 50% cytotoxic concentration (CC50) in data set [7] was 29.7 µM.

With `O=C(/C=C/c1cccnc1)N1CCN(C(c2ccc(F)cc2)c2ccc(F)cc2)CC1`, the inhibition at 5 µM in data set [1] was found to be 54.4%. Moreover, the cell viability in data set [2] is on record as more than 80%. Also, in data set [5], the selectivity ratio was found to be 13. Besides, the Activity in data set [3] is 76.5%. Moreover, the IC50 in data set [6] amounted to 1.61 µM. For the same compound, in data set [4], the inhibition at 2.5 µM was determined as 53.8%. In addition, the cytotoxic concentration (CC50) in data set [7] was 20.9 µM.

Turning to `O=C(/C=C/c1ccncc1)N1CCN(C(c2ccc(F)cc2)c2ccc(F)cc2)CC1`, in data set [1], the inhibition at 5 µM was 90.7%. The cell viability in data set [2] is listed as more than 80%. The selectivity ratio in data set [5] turned out to be 13.3. Also, in data set [3], the Activity is 95.3%. In data set [6], the IC50 worked out at 2.35 µM. Also, the inhibition at 2.5 µM in data set [4] came out at 58.1%. Besides, the half-maximal cytotoxic concentration (CC50) in data set [7] turned out to be 31.3 µM.

Regarding `O=c1cc(-c2ccccc2)oc2cc(O)c(O)c(O)c12` [BAICALEIN], the selectivity ratio in data set [5] was more than 6. The IC50 in data set [6] came out at 16.9 µM. Also, in data set [7], the CC50 was more than 100 µM.

Consider `COc1ccc(CN2CCN(C(c3ccc(F)cc3)c3ccc(F)cc3)CC2)c(OC)c1OC` [LOMERIZINE], for which, in data set [5], the selectivity ratio is more than 24.9. The IC50 in data set [6] amounted to 4.02 µM. Also, the cytotoxic concentration (CC50) in data set [7] is more than 100 µM.

Values taken from ChEMBL document CHEMBL5252584, “Design, synthesis and anti-Chikungunya virus activity of lomerizine derivatives” (Bioorg Med Chem Lett, 2023).
